How the values were obtained:
[1] = mn = molality of the nth substance listed, in mol/kg; conditions: 298 K, 101 kPa, Liquid
[2] = molar heat capacity at constant pressure; mn = molality of the nth substance listed, in mol/kg; conditions: 298.15 K, 101 kPa, Liquid, Flow calorimetry

O=C([O-])CCC(=O)[O-].[Na+].[Na+] [disodium succinate] + O
Conditions	mass density, [1] [kg/m3]	molar heat capacity at constant pressure, [2] [J/K/mol]
m1 = 0.009952	998.141	75.32
m1 = 0.02038	999.243	75.31
m1 = 0.04187	1001.53	75.28
m1 = 0.06054	1003.53	75.26
m1 = 0.1003	1007.7	75.22
m1 = 0.2003	1018	75.2
m1 = 0.3001	1028.05	75.23
m1 = 0.5006	1047.46	75.44
m1 = 0.7497	1070.41	75.93
m1 = 1	1092.29	76.61
m1 = 1.494	1132.32	78.38
m1 = 1.999	1169.44	80.61

O=C([O-])C(=O)[O-].[K+].[K+] [potassium oxalate] + O
Conditions	mass density, [1] [kg/m3]	molar heat capacity at constant pressure, [2] [J/K/mol]
m1 = 0.01029	998.319	75.17
m1 = 0.01993	999.506	75
m1 = 0.03995	1001.9	74.67
m1 = 0.06118	1004.41	74.34
m1 = 0.1011	1009.21	73.71
m1 = 0.1971	1020.46	72.27
m1 = 0.2996	1032.09	70.86
m1 = 0.501	1054.2	68.3
m1 = 0.7483	1080.17	65.5
m1 = 0.9987	1105.27	63
m1 = 1.197	1124.39	61.21
m1 = 1.396	1142.79	59.54
m1 = 1.497	1151.71	58.76

[Cl-].[Na+] [sodium chloride] + O
Conditions	mass density, m1 = 0.9998 [kg/m3]	mass density, m1 = 1.999 [kg/m3]	mass density, m1 = 3 [kg/m3]	molar heat capacity at constant pressure, m1 = 0.9998 [J/K/mol]	molar heat capacity at constant pressure, m1 = 1.999 [J/K/mol]	molar heat capacity at constant pressure, m1 = 3 [J/K/mol]
[1]	1036.18	1072.22	1105.7	–	–	–
[2]	–	–	–	73.34	72.23	71.74

O=C([O-])CC(=O)[O-].[Na+].[Na+] [sodium malonate] + O
Conditions	mass density, [1] [kg/m3]	molar heat capacity at constant pressure, [2] [J/K/mol]
m1 = 0.0102	998.203	75.19
m1 = 0.02019	999.271	75.06
m1 = 0.04023	1001.44	74.8
m1 = 0.05997	1003.61	74.54
m1 = 0.09952	1007.82	74.04
m1 = 0.2049	1018.85	72.81
m1 = 0.3005	1028.55	71.8
m1 = 0.4985	1048.21	69.9
m1 = 0.7356	1070.79	68.01
m1 = 0.9746	1092.13	66.27
m1 = 1.481	1134.8	63.33
m1 = 1.995	1173.58	61.03
m1 = 2.993	1241.78	–
m1 = 3.991	1296.36	–

O=C([O-])C(=O)[O-].[Na+].[Na+] [sodium oxalate] + O
Conditions	mass density, [1] [kg/m3]	molar heat capacity at constant pressure, [2] [J/K/mol]
m1 = 0.009986	998.164	75.31
m1 = 0.01989	999.268	75.27
m1 = 0.03998	1001.48	75.22
m1 = 0.0603	1003.67	75.17
m1 = 0.09999	–	75.08
m1 = 0.1502	1013.28	75
m1 = 0.1996	1018.42	74.93
m1 = 0.2494	1023.55	74.88
